Laboratory results published in PubChem BioAssay AID248 (DTP/NCI, 2004).
Values joined by “and” are separate entries in the source; they are usually repeats but may differ in a detail not shown here. Equal entries are not always repeated. Inconclusive results and toxic doses are left out. Cut-off read from the data, not from the text of the source: active = T/C of 150% or more; inactive = T/C below 125%.

Tested on: L1210 leukemia ip in BDF1 mice, survival T/C
Assay: NCI In Vivo Anticancer Drug Screen. Data for tumor model L1210 Leukemia (intraperitoneal) in B6D2F1 (BDF1) mice
Details: endpoint: mean survival time, higher = longer survival
In short: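 Antitumor effect is assessed in tumor-bearing animals. Survival in the compound arm is compared with a vehicle-dosed control arm and expressed as their quotient.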

[1] = dose: 50.0 mg/kg/injection, schedule: Q01DX001 (ip), vehicle: carboxymethylcellulose (CMC)
[2] = dose: 200.0 mg/kg/injection, schedule: Q01DX001 (ip), vehicle: carboxymethylcellulose (CMC)
[3] = dose: 400.0 mg/kg/injection, schedule: Q01DX001 (ip), vehicle: carboxymethylcellulose (CMC)
[4] = dose: 100.0 mg/kg/injection, schedule: Q01DX001 (ip), vehicle: Klucel (hydroxypropylcellulose) (HPC)
[5] = dose: 200.0 mg/kg/injection, schedule: Q01DX001 (ip), vehicle: Klucel (hydroxypropylcellulose) (HPC)
[6] = dose: 400.0 mg/kg/injection, schedule: Q01DX001 (ip), vehicle: Klucel (hydroxypropylcellulose) (HPC)
[7] = dose: 100.0 mg/kg/injection, schedule: Q04DX003 (ip), vehicle: Klucel (hydroxypropylcellulose) (HPC)
[8] = dose: 200.0 mg/kg/injection, schedule: Q04DX003 (ip), vehicle: Klucel (hydroxypropylcellulose) (HPC)
[9] = dose: 400.0 mg/kg/injection, schedule: Q04DX003 (ip), vehicle: Klucel (hydroxypropylcellulose) (HPC)
[10] = dose: 100.0 mg/kg/injection, schedule: Q01DX001 (ip), vehicle: saline
[11] = dose: 100.0 mg/kg/injection, schedule: Q01DX009 (ip), vehicle: Klucel (hydroxypropylcellulose) (HPC)
[12] = dose: 200.0 mg/kg/injection, schedule: Q01DX009 (ip), vehicle: Klucel (hydroxypropylcellulose) (HPC)
[13] = dose: 100.0 mg/kg/injection, schedule: Q01DX001 (ip), vehicle: carboxymethylcellulose (CMC)
[14] = dose: 100.0 mg/kg/injection, schedule: Q04DX002 (ip), vehicle: Klucel (hydroxypropylcellulose) (HPC)
[15] = dose: 200.0 mg/kg/injection, schedule: Q04DX002 (ip), vehicle: Klucel (hydroxypropylcellulose) (HPC)
[16] = dose: 400.0 mg/kg/injection, schedule: Q04DX002 (ip), vehicle: Klucel (hydroxypropylcellulose) (HPC)

Measured: T/C

COc1ccc(Cl)cc1NC(=O)OC/C=C/c1ccccc1
inactive: dose: 100.0 mg/kg/injection, schedule: Q01DX009 (ip), vehicle: gum acacia 96 % of control | dose: 200.0 mg/kg/injection, schedule: Q01DX009 (ip), vehicle: gum acacia 96 % of control | dose: 400.0 mg/kg/injection, schedule: Q01DX009 (ip), vehicle: gum acacia 87 % of control

C=C1CC2(c3ccccc3)C(=O)C1(c1ccccc1)C(c1ccccc1)=C2c1ccccc1 (stereo unspecified)
inactive: [1] 96 % of control | [2] 90 % of control | [3] 89 % of control

CCC(O)(C1=NC(C)(C)CO1)c1ccncc1Br (stereo unspecified)
inactive: [4] 100 % of control | [5] 94 % of control | [6] 97 % of control

CC(=O)OC1CCC2(C)C3CCC4(C)C(OC(=O)c5ccccc5)CCC4C3C3C(=O)OC32C1 (stereo unspecified)
inactive: [7] 95 % of control | [8] 95 % of control | [9] 95 % of control

Cc1nnc(NC(=O)NCCCl)s1
inactive: [7] 100 % of control | [8] 107 % of control | [9] 118 % of control

CC1CN1P(=O)(N1CC1C)N1CC1C.CC1CN1P(=O)(N1CC1C)N1CC1C.CC1CN1P(=O)(N1CC1C)N1CC1C.CC1CN1P(=O)(N1CC1C)N1CC1C.[Cu+2].[O-][Cl+3]([O-])([O-])O (stereo unspecified)
inactive: dose: 25.0 mg/kg/injection, schedule: Q01DX009 (ip), vehicle: saline 111 % of control | dose: 25.0 mg/kg/injection, schedule: Q04DX002 (ip), vehicle: saline 108 % of control | dose: 50.0 mg/kg/injection, schedule: Q01DX009 (ip), vehicle: saline 119 % of control | dose: 50.0 mg/kg/injection, schedule: Q04DX002 (ip), vehicle: saline 102 % of control | dose: 100.0 mg/kg/injection, schedule: Q01DX009 (ip), vehicle: saline 92 % of control | dose: 100.0 mg/kg/injection, schedule: Q04DX002 (ip), vehicle: saline 108 % of control and 119 % of control

O=C(Cl)c1ccc(C(Cl)(Cl)Cl)cc1
inactive: [7] 95 % of control | [8] 111 % of control | [9] 104 % of control

CC(=O)OC1([N+](=O)[O-])c2ccccc2C2CC1c1ccccc12 (stereo unspecified)
inactive: dose: 75.0 mg/kg/injection, schedule: Q04DX003 (ip), vehicle: Klucel (hydroxypropylcellulose) (HPC) 112 % of control | [4] 91 % of control | dose: 150.0 mg/kg/injection, schedule: Q04DX003 (ip), vehicle: Klucel (hydroxypropylcellulose) (HPC) 107 % of control | [5] 99 % of control | dose: 300.0 mg/kg/injection, schedule: Q04DX003 (ip), vehicle: Klucel (hydroxypropylcellulose) (HPC) 97 % of control | [6] 100 % of control

COc1ccc(C(C#N)C(O)(c2ccccc2)c2ccccc2)cc1 (stereo unspecified)
inactive: dose: 50.0 mg/kg/injection, schedule: Q01DX001 (ip), vehicle: saline 104 % of control | [10] 107 % of control | dose: 200.0 mg/kg/injection, schedule: Q01DX001 (ip), vehicle: saline 98 % of control | dose: 400.0 mg/kg/injection, schedule: Q01DX001 (ip), vehicle: saline 93 % of control

Cn1c(N)c(C(C[N+](=O)[O-])c2ccccc2)c(=O)n(C)c1=O (stereo unspecified)
inactive: dose: 50.0 mg/kg/injection, schedule: Q01DX009 (ip), vehicle: Klucel (hydroxypropylcellulose) (HPC) 95 % of control | [11] 92 % of control | [12] 98 % of control

CCC(C)(O)C#N (stereo unspecified)
inactive: dose: 2.2 mg/kg/injection, schedule: Q01DX Z (ip), vehicle: saline 104 % of control | dose: 3.3 mg/kg/injection, schedule: Q01DX Z (ip), vehicle: saline 94 % of control | dose: 5.0 mg/kg/injection, schedule: Q01DX Z (ip), vehicle: saline 98 % of control

CC1=NN(c2ccccc2)C(=O)C1N=Nc1ccc(S(=O)(=O)Nc2ccccn2)cc1 (stereo unspecified)
inactive: [13] 97 % of control | [2] 94 % of control | [3] 97 % of control

NC(=O)N/N=C1/CCSc2ccc3c(c21)CCCC3
inactive: [4] 102 % of control | [11] 106 % of control | [5] 93 % of control | [12] 104 % of control | [6] 94 % of control | dose: 400.0 mg/kg/injection, schedule: Q01DX009 (ip), vehicle: Klucel (hydroxypropylcellulose) (HPC) 101 % of control

CCOC(=S)c1ccc(S(=O)(=O)Nc2ccc(OCC)cc2)cc1
inactive: [4] 95 % of control | [5] 98 % of control | [6] 95 % of control

O=C(O)C1CSC(c2ccccc2)N1 (stereo unspecified)
inactive: dose: 100.0 mg/kg/injection, schedule: Q01DX001 (ip), vehicle: other 105 % of control | dose: 176.0 mg/kg/injection, schedule: Q01DX001 (ip), vehicle: other 109 % of control and 91 % of control | dose: 200.0 mg/kg/injection, schedule: Q01DX001 (ip), vehicle: other 102 % of control | dose: 267.0 mg/kg/injection, schedule: Q01DX001 (ip), vehicle: other 96 % of control and 90 % of control | dose: 600.0 mg/kg/injection, schedule: Q01DX001 (ip), vehicle: other 101 % of control and 90 % of control

COc1ccc(-n2cccc2/C=N/O)cc1
inactive: [14] 96 % of control | [15] 100 % of control | [16] 86 % of control

CC(C)CCCC(C)C1CCC2C3CC=C4CC(=O)CCC4(C)C3CCC12C (stereo unspecified)
inactive: dose: 100.0 mg/kg/injection, schedule: Q04DX002 (ip), vehicle: saline with Tween-80 98 % of control | dose: 400.0 mg/kg/injection, schedule: Q04DX002 (ip), vehicle: saline with Tween-80 88 % of control

CCN(CC)CCNC(c1ccccc1)C(Cl)(Cl)Cl (stereo unspecified)
inactive: [10] 100 % of control

Cc1ccc(C)c(Cl)c1
inactive: dose: 50.0 mg/kg/injection, schedule: Q01DX001 (ip), vehicle: saline with Tween-80 95 % of control | dose: 50.0 mg/kg/injection, schedule: Q04DX003 (ip), vehicle: saline with Tween-80 101 % of control | dose: 100.0 mg/kg/injection, schedule: Q01DX001 (ip), vehicle: saline with Tween-80 97 % of control | dose: 100.0 mg/kg/injection, schedule: Q04DX003 (ip), vehicle: saline with Tween-80 100 % of control | dose: 200.0 mg/kg/injection, schedule: Q01DX001 (ip), vehicle: saline with Tween-80 97 % of control | dose: 200.0 mg/kg/injection, schedule: Q04DX003 (ip), vehicle: saline with Tween-80 97 % of control

O=C(CCl)NC(O)C(Cl)(Cl)Cl (stereo unspecified)
inactive: dose: 1.8 mg/kg/injection, schedule: Q01DX009 (ip), vehicle: saline with Tween-80 100 % of control | dose: 3.7 mg/kg/injection, schedule: Q01DX009 (ip), vehicle: saline with Tween-80 98 % of control | dose: 7.5 mg/kg/injection, schedule: Q01DX009 (ip), vehicle: saline with Tween-80 102 % of control | dose: 75.0 mg/kg/injection, schedule: Q04DX003 (ip), vehicle: saline 101 % of control | dose: 150.0 mg/kg/injection, schedule: Q04DX003 (ip), vehicle: saline 101 % of control | dose: 300.0 mg/kg/injection, schedule: Q04DX003 (ip), vehicle: saline 87 % of control

Cc1cccnc1NC(=S)Nc1cccc(C(F)(F)F)c1
inactive: [14] 95 % of control | [15] 95 % of control | [16] 92 % of control

O=C1C(=O)c2ccccc2C=C1C1CCCCC1
inactive: [1] 97 % of control | [13] 114 % of control | [2] 97 % of control | [3] 107 % of control

N#Cc1cncc(-c2ccccc2)c1
inactive: dose: 25.0 mg/kg/injection, schedule: Q04DX003 (ip), vehicle: Klucel (hydroxypropylcellulose) (HPC) 95 % of control | dose: 50.0 mg/kg/injection, schedule: Q04DX003 (ip), vehicle: Klucel (hydroxypropylcellulose) (HPC) 95 % of control | [7] 89 % of control

CCOC(=O)/C(O)=C\c1nnccc1Cl
inactive: dose: 56.25 mg/kg/injection, schedule: Q04DX002 (ip), vehicle: saline 96 % of control | dose: 112.5 mg/kg/injection, schedule: Q04DX002 (ip), vehicle: saline 104 % of control | dose: 225.0 mg/kg/injection, schedule: Q04DX002 (ip), vehicle: saline 101 % of control

CC(=O)OC1CC2CC(C1)C(C#N)C(=O)NC(=O)C2C#N (stereo unspecified)
inactive: [13] 102 % of control | [2] 96 % of control | [3] 92 % of control
